The source of these data is ChEMBL document CHEMBL1821574, “Structure-activity relationships of 4-position diamine quinoline methanols as intermittent preventative treatment (IPT) against Plasmodium falciparum” (J Med Chem, 2011).

Values after ≈ are worked out from the molar mass of the structure shown.

Data set [1] has as its system Plasmodium falciparum. Description: Antimalarial activity against chloroquine-sensitive and mefloquine-resistant Plasmodium falciparum D6 by SYBR Green I-based fluorescence assay. It is filed as functional.
Data set [2] relates to Plasmodium falciparum. Description: Antimalarial activity against chloroquine, mefloquine and pyrimethamine-resistant Plasmodium falciparum TM90C2A assessed as inhibition of [3H]hypoxanthine incorporation by liquid scintillation spectrometry. It is filed as functional.
The subject of data set [3] is Plasmodium falciparum. Description: Antimalarial activity against chloroquine-sensitive and mefloquine-resistant Plasmodium falciparum D6 assessed as inhibition of [3H]hypoxanthine incorporation by liquid scintillation spectrometry. It is filed as functional.
For data set [4], the system named is Plasmodium falciparum. Description: Antimalarial activity against chloroquine-resistant and mefloquine-sensitive Plasmodium falciparum W2 assessed as inhibition of [3H]hypoxanthine incorporation by liquid scintillation spectrometry. The class given is functional.
In data set [5] the test system is Plasmodium falciparum. The experiment in a line: Antimalarial activity against chloroquine, mefloquine and pyrimethamine-resistant Plasmodium falciparum TM91C235 assessed as inhibition of [3H]hypoxanthine incorporation by liquid scintillation spectrometry. The class given is functional.
In data set [6] the test system is Plasmodium falciparum. The experiment in a line: Antimalarial activity against chloroquine, mefloquine and pyrimethamine-resistant Plasmodium falciparum TM91C235 by SYBR Green I-based fluorescence assay. The class given is functional.
A short description of data set [7]: Apparent permeability from apical to basolateral side of dog MDCK cells at 5 uM after 2 hrs by LC/MS/MS analysis. It is filed as ADME, cell-based, Canis lupus familiaris.

The IC90 is the concentration needed for an effect of 90%. Turning to `OC(CNCCNCc1ccncc1)c1cc(C(F)(F)F)nc2c(C(F)(F)F)cccc12` (centres undefined), the IC90 with Plasmodium falciparum [1] was 0.38 µg/mL (≈ 0.829 µM); with Plasmodium falciparum [2], greater than 0.5 µg/mL; with Plasmodium falciparum [3], 0.38 µg/mL (≈ 0.829 µM); in the data set with Plasmodium falciparum [4], 0.47 µg/mL (≈ 1.03 µM); in the data set on Plasmodium falciparum [5] it was greater than 0.5 µg/mL; in the data set on Plasmodium falciparum [6] it was greater than 0.5 µg/mL.
As to `OC(CNCCN1CCCC1)c1cc(C(F)(F)F)nc2c(C(F)(F)F)cccc12` (centres undefined), the IC90 in the data set with Plasmodium falciparum [2] was 0.835 µg/mL (≈ 1.98 µM); in the data set with Plasmodium falciparum [3] it was 0.311 µg/mL (≈ 0.738 µM); in the data set with Plasmodium falciparum [4] it was 0.109 µg/mL (≈ 0.259 µM); in the data set with Plasmodium falciparum [5] it was 0.556 µg/mL (≈ 1.32 µM).
As usually defined, the Papp A→B is how fast a substance crosses the layer from the apical side. With `CC1CCN(CC(C)(C)NCC(O)c2cc(C(F)(F)F)nc3c(C(F)(F)F)cccc23)CC1` (centres undefined), the IC90 with Plasmodium falciparum [1] worked out at 0.017 µg/mL (≈ 0.0356 µM); in the data set on Plasmodium falciparum [2], 0.066 µg/mL (≈ 0.138 µM); in the data set with Plasmodium falciparum [3] it was 0.024 µg/mL (≈ 0.0503 µM); with Plasmodium falciparum [4] it was 0.007 µg/mL (≈ 0.0147 µM); in the data set on Plasmodium falciparum [5] it was 0.061 µg/mL (≈ 0.128 µM); with Plasmodium falciparum [6], 0.034 µg/mL (≈ 0.0712 µM). Also, in data set [7], the Papp A→B at 2 h, 5 µM came to 44.2 ×10⁻⁶ cm/s.
As to `CC(CCN1CCOCC1)NCC(O)c1cc(C(F)(F)F)nc2c(C(F)(F)F)cccc12` (centres undefined), the IC90 in the data set on Plasmodium falciparum [2] came to 0.095 µg/mL (≈ 0.204 µM); with Plasmodium falciparum [3] it was 0.036 µg/mL (≈ 0.0773 µM); in the data set with Plasmodium falciparum [4] it was 0.011 µg/mL (≈ 0.0236 µM); with Plasmodium falciparum [5], 0.055 µg/mL (≈ 0.118 µM).
For `OC(CNCC1CCNC1)c1cc(C(F)(F)F)nc2c(C(F)(F)F)cccc12` (centres undefined), in that order: 4.37 µg/mL (≈ 10.7 µM), 3.1 µg/mL (≈ 7.61 µM), 2.04 µg/mL (≈ 5.01 µM) and 4.27 µg/mL (≈ 10.5 µM).
In the case of `OC(CNC[C@]12CCC[C@H]1CNC2)c1cc(C(F)(F)F)nc2c(C(F)(F)F)cccc12` (some centres undefined), the IC90 came out at 0.429 µg/mL (≈ 0.959 µM) with Plasmodium falciparum [2], 0.159 µg/mL (≈ 0.355 µM) in the data set on Plasmodium falciparum [3], 0.852 µg/mL (≈ 1.9 µM) with Plasmodium falciparum [4] and 0.419 µg/mL (≈ 0.936 µM) with Plasmodium falciparum [5].
Consider `OC(CNC[C@@]12CCC[C@@H]1CNC2)c1cc(C(F)(F)F)nc2c(C(F)(F)F)cccc12` (some centres undefined), for which the IC90 in the data set with Plasmodium falciparum [2] is 0.358 µg/mL (≈ 0.8 µM); in the data set with Plasmodium falciparum [3] it was 0.165 µg/mL (≈ 0.369 µM); in the data set with Plasmodium falciparum [4], 0.885 µg/mL (≈ 1.98 µM); in the data set with Plasmodium falciparum [5] it was 0.433 µg/mL (≈ 0.968 µM).
The corresponding values for `CN1CCCC(C(NCC(O)c2cc(C(F)(F)F)nc3c(C(F)(F)F)cccc23)C2CCCN(C)C2)C1` (centres undefined) are 0.983 µg/mL (≈ 1.85 µM), 0.746 µg/mL (≈ 1.4 µM), 0.28 µg/mL (≈ 0.526 µM) and 0.903 µg/mL (≈ 1.7 µM).
With `Cc1ccc(S(=O)(=O)N(CCN2CCCCC2)CC(O)c2cc(C(F)(F)F)nc3c(C(F)(F)F)cccc23)cc1` (centres undefined), the IC90 in the data set with Plasmodium falciparum [1] was determined as 0.071 µg/mL (≈ 0.12 µM); in the data set with Plasmodium falciparum [6], 0.214 µg/mL (≈ 0.363 µM). In addition, the Papp A→B at 2 h, 5 µM in data set [7] came out at 2.5 ×10⁻⁶ cm/s.
The corresponding values for `OC(CNCCN1CC2CCC1C2)c1cc(C(F)(F)F)nc2c(C(F)(F)F)cccc12` (centres undefined) are 0.844 µg/mL (≈ 1.89 µM), 0.972 µg/mL (≈ 2.17 µM) and 14.2 ×10⁻⁶ cm/s.
For the compound `CC(CN1CC2CCC1C2)NCC(O)c1cc(C(F)(F)F)nc2c(C(F)(F)F)cccc12` (centres undefined), the values for the IC90 in the data set on Plasmodium falciparum [1] and in the data set with Plasmodium falciparum [6] were 0.029 µg/mL (≈ 0.0628 µM) and 0.051 µg/mL (≈ 0.111 µM), respectively. Also, the apical-to-basolateral permeability (Papp A→B) at 2 h, 5 µM in data set [7] is 18.8 ×10⁻⁶ cm/s.
Consider `CC(C)(CN1CC2CCC1C2)NCC(O)c1cc(C(F)(F)F)nc2c(C(F)(F)F)cccc12` (centres undefined), for which the IC90 in the data set with Plasmodium falciparum [1] stood at 0.093 µg/mL (≈ 0.196 µM); with Plasmodium falciparum [6], 0.16 µg/mL (≈ 0.337 µM). The Papp A→B at 2 h, 5 µM in data set [7] amounted to 25.1 ×10⁻⁶ cm/s.
Turning to `CN(CCN(C)CC(O)c1cc(C(F)(F)F)nc2c(C(F)(F)F)cccc12)CC(O)c1cc(C(F)(F)F)nc2c(C(F)(F)F)cccc12` (centres undefined), the values for the IC90 with Plasmodium falciparum [1] and in the data set on Plasmodium falciparum [6] were 0.329 µg/mL (≈ 0.468 µM) and 0.375 µg/mL (≈ 0.534 µM), respectively.
With `CNCCN(CC(O)c1cc(C(F)(F)F)nc2c(C(F)(F)F)cccc12)CC(O)c1cc(C(F)(F)F)nc2c(C(F)(F)F)cccc12` (centres undefined), the IC90 with Plasmodium falciparum [1] is 0.022 µg/mL (≈ 0.032 µM); in the data set with Plasmodium falciparum [6] it was 0.03 µg/mL (≈ 0.0436 µM). Moreover, the apparent permeability from apical to basolateral (Papp A→B) at 2 h, 5 µM in data set [7] amounted to 0.3 ×10⁻⁶ cm/s.
With `CN(C)CCN(CC(O)c1cc(C(F)(F)F)nc2c(C(F)(F)F)cccc12)CC(O)c1cc(C(F)(F)F)nc2c(C(F)(F)F)cccc12` (centres undefined), the 90% effect concentration (IC90) in the data set on Plasmodium falciparum [1] and in the data set with Plasmodium falciparum [6] was greater than 0.5 µg/mL each time.
Regarding `CN(CCN)CC(O)c1cc(C(F)(F)F)nc2c(C(F)(F)F)cccc12` (centres undefined), the IC90 in the data set with Plasmodium falciparum [1] worked out at 0.344 µg/mL (≈ 0.902 µM); with Plasmodium falciparum [6], 0.695 µg/mL (≈ 1.82 µM). Further, the Papp A→B at 2 h, 5 µM in data set [7] was found to be 4.9 ×10⁻⁶ cm/s.
For `CNCCN(C)CC(O)c1cc(C(F)(F)F)nc2c(C(F)(F)F)cccc12` (centres undefined), in that order: 0.432 µg/mL (≈ 1.09 µM), 0.755 µg/mL (≈ 1.91 µM) and 5.66 ×10⁻⁶ cm/s.
For `NCCN(Cc1ccccc1)CC(O)c1cc(C(F)(F)F)nc2c(C(F)(F)F)cccc12` (centres undefined), in that order: 0.329 µg/mL (≈ 0.719 µM), 0.289 µg/mL (≈ 0.632 µM) and 9.06 ×10⁻⁶ cm/s.
As for `CC(C)N(CCN)CC(O)c1cc(C(F)(F)F)nc2c(C(F)(F)F)cccc12` (centres undefined), the IC90 came to 0.439 µg/mL (≈ 1.07 µM) in the data set on Plasmodium falciparum [1] and 0.627 µg/mL (≈ 1.53 µM) with Plasmodium falciparum [6].
On to `CN(C)CC(C)(C)NCC(O)c1cc(C(F)(F)F)nc2c(C(F)(F)F)cccc12` (centres undefined), for which the IC90 with Plasmodium falciparum [2] turned out to be 0.165 µg/mL (≈ 0.39 µM); with Plasmodium falciparum [3], 0.098 µg/mL (≈ 0.231 µM); with Plasmodium falciparum [4] it was 0.03 µg/mL (≈ 0.0709 µM); with Plasmodium falciparum [5], 0.142 µg/mL (≈ 0.335 µM).
Turning to `CC(CNC(C)(C)C)NCC(O)c1cc(C(F)(F)F)nc2c(C(F)(F)F)cccc12` (centres undefined), the IC90 was 0.015 µg/mL (≈ 0.0343 µM) with Plasmodium falciparum [1] and 0.041 µg/mL (≈ 0.0937 µM) in the data set on Plasmodium falciparum [6]. Besides, in data set [7], the Papp A→B at 2 h, 5 µM amounted to 13.1 ×10⁻⁶ cm/s.
